Laboratory results: patent US9394544B2, “Ameliorating oxidative stress in neurodegenerative disease via Nox1 targeting” (University of Central Florida Research Foundation, Inc., priority 2013, dated 2016)

Tests used:
Nox1 = experiment: Nuclear localization of Nox1-EGFP in N27 cells (confocal microscopy); format: cell-based, rat; details: N27 cells expressing Nox1-EGFP; 6-OHDA 50 μM 6 h, rotenone 5 μM 18 h
From the text: The observation that Nox1 was induced by a variety of oxidative stimuli in vitro led one to test Nox1 expression in the rat substantia nigra DA (SNDA) neurons administered with 6-OHDA. […] Neither astrocytes nor microglia expressed Nox1, as verified by co-immunostaining of Nox1 with GFAP (astrocytes) or CD11b (microglia) (FIG. 3B). Increased Nox1 transcript was found in the SN as shown by in situ hybridization (FIG. 3C). […] As early as 3 days post 6-OHDA injection, Nox1 expression was increased in the nucleus and in the cytoplasm of DA neurons (FIG. 4A). […] Nuclear expression of the Nox1/Rac1 complex was further analyzed in N27 cells after treatment with 6-OHDA. First, activated Rac1 was detected by immunoprecipitation of nuclear extracts of N27 cells after a 24 h treatment with 6-OHDA. […] Next, it was established that N27 cells stably expressing Nox1 tagged with EGFP at the C-terminus. […] To examine whether nuclear translocation of Nox1 in dopaminergic cells is observed under different conditions that cause dopaminergic neuronal death, mitochondrial respiratory complex inhibitor, rotenone, was tested.

α-synuclein = experiment: α-Synuclein protein levels (immunoblot) in N27 cells exposed to PQ; format: cell-based, rat
Protocol: The N27 cells were grown in RPMI 1640 medium containing 10% fetal bovine serum (FBS), 100 U penicillin, and 50 μg/ml streptomycin, in a humidified atmosphere of 5% CO2 at 37° C. N27 cultures were prepared for experiments by plating the cells on polystyrene tissue culture dishes at a density of 0.5×10^5 cells/well in 24-well culture plates with glass coverslip and at 1.5×10^5 cells/well in 6-well culture plates.
For Western blot, brain tissues were lysed on ice in radioimmunoprecipitation assay buffer containing 50 mMTris/HCl, pH 8.0, 150 mM NaCl, 2 mM sodium orthovanadate, 1% Nonidet-P40 (NP-40), 0.5% sodium deoxycholate, and 0.1% SDS, containing 1% of a protease inhibitor mixture (AEBSF, pepstatinA, E-64, bestatin, leupeptin, and aprotinin). The soluble fraction was obtained and equal amounts of cell lysate protein were loaded in each lane of a 12% SDS-PAGE or 4/10% to 20% polyacrylamide gel. After electrophoresis and transfer onto a polyvinylidene difluoride (PVDF) membrane, specific protein bands were detected using appropriate primary antibodies (rabbit anti-Nox1, rabbit anti-α-synuclein, mouse anti-Ubiquitin, mouse anti-tyrosine hydroxylase (TH), and mouse anti-β-actin) and secondary antibodies conjugated to alkaline phosphatase or […] peroxidase (anti-rabbit or anti-mouse) followed by Enhanced Chemifluorescence (ECF) detection or Enhanced Chemiluminescence (ECL).

rat SN = experiment: Immunohistochemistry of SN sections, PQ rat model; format: in vivo
Protocol: The experiments were performed on rats, in accordance with the National Institutes for Health Guide for the Care and Use of Laboratory Animals. All procedures were approved by the local Animal Care and Use Committee. Male Wistar rats (8-10 weeks; Charles River) were maintained in a temperature/humidity-controlled environment under a 12 h light/dark cycle with ad libitum access to food and water. As depicted in FIG. 13A, each animal received four intraperitoneal injections, separated by 1 d, of either vehicle (saline) or PQ (10 mg/kg body weight; b.w.), according to a previously published dose (Manning-Bog et al., 2002; Harraz et al., 2008; Cristovao et al., 2009). All animals were weighed at day 1 and 12. In the studies using the paradigm depicted in FIG. 13A, 4 weeks before starting PQ intraperitoneal injection, animals were stereotaxically injected with various viral constructs at the right SN using the following coordinates: mediolateral, +2.0; anteroposterior, −5.3; dorsoventral, −6.8. Animals were organized into four groups: vector+vehicle: stereotaxically injected with adeno-associated virus (AAV) particles containing a green fluorescent protein (GFP) vector (vector) and then intraperitoneally injected with saline (vehicle) (n=10); vector+PQ: stereotaxically injected with vector and then intraperitoneally injected with PQ (n=10); shNox1+PQ: stereotaxically injected with AAV particles harboring Nox1 shRNA and then intraperitoneally injected with PQ (n=10); shNox1+vehicle: stereotaxically injected with Nox1 shRNA and then intraperitoneally injected with vehicle (n=8). AAV containing GFP vector was used as a negative control. Five days after the last PQ intraperitoneal injection, animals were killed. For Western blot analysis, brains were collected and total protein lysates from SN were prepared. For immunohistochemical analysis, animals were intracardially perfused before collecting the brains.
Following perfusion with saline and 4% PFA in PBS, brains were removed, and forebrain and midbrain blocks were immersion fixed in 4% PFA and cryoprotected in sucrose. Serial coronal sections (40 μm) were cut on a cryostat, collected in cryopreservative solution, and stored at −20° C. For immunolabeling studies, sections were incubated at room temperature with blocking solution for 1 h (5% FBS and 0.3% Triton X-100 in PBS, pH 7.5) and then with primary antibodies overnight. Finally, sections were incubated with secondary antibodies in blocking solution at room temperature for 1 h. The primary antibodies used were mouse anti-TH (1:10,000), rabbit anti-Nox1 (1:500), goat anti-4-HNE (1:700), mouse anti-ubiquitin (1:250), rabbit anti-α-synuclein (1:150), and rabbit anti-A11 oligomers (2.5 μg/ml). The secondary antibodies were biotinylated anti-rabbit IgG, anti-goat IgG, or anti-rat IgG (1:200). The staining procedure was performed as indicated by the manufacturer of the Vectastain ABC kit and the reaction product visualized using 3,3′-diaminobenzidine (DAB) reagent in TBS containing 0.02% H2O2. The numbers of TH-immunoreactive cells in the SN were counted using an optical fractionator. Analysis was performed using a system consisting of a Nikon Eclipse E600 microscope (Morrell Instruments) equipped with a computer-controlled LEP BioPoint motorized stage (Ludl Electronic Products), a DEI-750 video camera (Meyer Instruments), a Dell Dimension 4300 computer (Dell), and the Stereo Investigator (v. 4.35) software program (Microbrightfield).
Immunocytochemistry for proteinase K (PK)-resistant α-synuclein was performed based on a methodology reported previously (Neumann et al., 2002), with some modifications. Briefly, fixed cells were permeabilized with 0.1% Tween 20 and then digested for 30 min at 37° C. with PK (10 μg/ml). PK was inactivated with 3 M guanidine thiocyanate in 10 mM Tris-HCl solution for 10 min. Between each step, cells were washed gently three times with PBS. […]

Compound	nuclear localization of Nox1 (Nox1)	increase of α-synuclein protein levels (α-synuclein; 800 μM, 8 h) [%]	increase of α-synuclein protein levels (α-synuclein; 800 μM, 24 h) [%]	increase of α-synuclein protein levels (α-synuclein; 1000 μM, 8 h) [%]	increase of α-synuclein protein levels (α-synuclein; 1000 μM, 24 h) [%]	immunoreactivity of A11 oligomers in the SN (rat SN; PQ, PQ with Nox1 knocked down)	α-Synuclein immunoreactivity in the SN (rat SN; rats, PQ vs vehicle)	4-HNE immunoreactivity (lipid peroxidation) in the SN (rat SN; rats, PQ vs vehicle, Nox1 shRNA+PQ vs PQ)	Nox1 immunoreactivity in the SN (rat SN; rats, PQ vs vehicle, Nox1 shRNA+PQ vs vector+PQ)	PK-resistant α-synuclein immunoreactivity in the rat SN (rat SN; vector+PQ vs vector+vehicle, Nox1 shRNA+PQ)	ubiquitin immunoreactivity in the rat SN (rat SN; vector+PQ, Nox1 shRNA+PQ)
NCCc1cc(O)c(O)cc1O [6-OHDA, 6-hydroxydopamine]	translocation of Nox1-EGFP into the nucleus										
C[n+]1ccc(-c2cc[n+](C)cc2)cc1 [PQ, paraquat]		55	61	60	27	significant increase	increased	increase	upregulation	increase	significant increase
